Series [1] deals with Mus musculus. Briefly: Anticonvulsant activity in ip dosed sc-PTZ induced Kunming mouse model assessed as effective dose measured after 0.5 hrs […]. It is filed as functional. In general terms: Falling from the rotarod earlier than controls is read as motor impairment.
Series [2] can be described thus: Drug concentration in male Sprague-Dawley rat plasma at 30 mg/kg, IG administered once measured after 0.25 to 8 hrs by HPLC analysis. It is filed as ADME, organism-based. The note with it: in vivo, po, time 0.25-8 hrs.
Series [3] can be described thus: Neurotoxicity in ip dosed sc-PTZ induced Kunming mouse measured after 0.5 hrs by rotarod test. The class given is toxicity, organism-based. The settings on record: in vivo.
Series [4] has as its system Mus musculus. Briefly: Anticonvulsant activity in MES-induced seizure Kunming mouse model assessed as protection against tonic hind limb extension at 30 mg/kg, ip measured after 30 min. The class given is functional, organism-based.
Series [5] can be described thus: Protection index, ratio of TD50 for neurotoxicity in ip dosed scPTZ induced Kunming mouse to ED50 for anticonvulsant activity in ip dosed scPTZ induced Kunming mouse. The class given is toxicity, organism-based. The settings on record: in vivo, read-out: Ratio TD50/ED50.
Series [6] concerns the target Sodium channel protein type 2 subunit alpha (Homo sapiens, UniProt Q99250). Kind of series: Inhibition of Nav 1.2 (unknown origin) expressed in HEK293 cells at -20 mV to -120 mV holding potential under inactivation state by whole-cell patch clamp analysis. It is filed as cell-based. Background: Patch clamp records ionic current or voltage across a cell membrane.
Series [7] can be described thus: Drug concentration in male Sprague-Dawley rat brain at 30 mg/kg, IG administered once measured after 0.25 to 8 hrs by HPLC analysis. The class given is ADME, organism-based. The settings on record: in vivo, po, time 0.25-8 hrs.
Series [8] has as its system Mus musculus. Briefly: Antiepileptic activity in PTZ induced Kunming mouse model assessed as protection of seizure at 30 mg/kg, ip incubated for 30 min prior to PTZ stimulation relative to control. The class given is functional. The settings on record: 0.5 h.
Series [9] concerns the target GABA-A receptor; alpha-1/beta-2/gamma-2 (Homo sapiens) (UniProt P14867+P47870+P18507). Briefly: Potentiation of recombinant human alpha1/beta2/gamma2 GABA receptor expressed in T-REX-CHO cells assessed as fold increase in current amplitude by measuring maximum efficacy by whole-cell patch clamp assay. The class given is cell-based. The note with it: filed as activator, time 24-48 hrs.

Series [10] deals with T1, GABA-A receptor; alpha-1/beta-2/gamma-2 (Homo sapiens, UniProt P14867+P18507+P47870).
T1 sequence (P14867 whole entry): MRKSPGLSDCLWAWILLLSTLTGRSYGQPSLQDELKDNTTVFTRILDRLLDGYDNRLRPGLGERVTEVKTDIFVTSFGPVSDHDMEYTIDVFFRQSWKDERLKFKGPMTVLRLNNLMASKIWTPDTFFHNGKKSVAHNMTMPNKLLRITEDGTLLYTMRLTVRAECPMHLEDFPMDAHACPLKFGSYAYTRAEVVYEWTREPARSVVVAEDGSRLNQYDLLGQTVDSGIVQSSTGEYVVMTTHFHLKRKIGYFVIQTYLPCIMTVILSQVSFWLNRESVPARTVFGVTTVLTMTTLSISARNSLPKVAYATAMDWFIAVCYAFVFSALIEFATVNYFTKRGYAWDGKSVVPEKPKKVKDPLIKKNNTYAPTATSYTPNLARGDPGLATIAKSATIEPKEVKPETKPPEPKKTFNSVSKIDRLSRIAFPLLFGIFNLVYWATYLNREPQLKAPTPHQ
T1 sequence (P47870 whole entry): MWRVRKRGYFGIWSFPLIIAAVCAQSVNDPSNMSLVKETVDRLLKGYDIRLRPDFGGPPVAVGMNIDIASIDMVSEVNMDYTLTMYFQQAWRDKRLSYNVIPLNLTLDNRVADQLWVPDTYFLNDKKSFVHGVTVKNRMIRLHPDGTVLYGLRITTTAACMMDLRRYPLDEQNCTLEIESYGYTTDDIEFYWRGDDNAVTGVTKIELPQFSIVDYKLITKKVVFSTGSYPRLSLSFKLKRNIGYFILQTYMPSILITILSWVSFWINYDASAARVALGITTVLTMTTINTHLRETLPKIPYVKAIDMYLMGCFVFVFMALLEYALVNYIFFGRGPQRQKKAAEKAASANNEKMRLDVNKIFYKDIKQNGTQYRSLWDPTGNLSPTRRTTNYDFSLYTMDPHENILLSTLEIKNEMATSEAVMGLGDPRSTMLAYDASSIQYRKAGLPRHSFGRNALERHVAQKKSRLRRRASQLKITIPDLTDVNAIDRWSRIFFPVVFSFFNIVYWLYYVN
T1 sequence (P18507 whole entry): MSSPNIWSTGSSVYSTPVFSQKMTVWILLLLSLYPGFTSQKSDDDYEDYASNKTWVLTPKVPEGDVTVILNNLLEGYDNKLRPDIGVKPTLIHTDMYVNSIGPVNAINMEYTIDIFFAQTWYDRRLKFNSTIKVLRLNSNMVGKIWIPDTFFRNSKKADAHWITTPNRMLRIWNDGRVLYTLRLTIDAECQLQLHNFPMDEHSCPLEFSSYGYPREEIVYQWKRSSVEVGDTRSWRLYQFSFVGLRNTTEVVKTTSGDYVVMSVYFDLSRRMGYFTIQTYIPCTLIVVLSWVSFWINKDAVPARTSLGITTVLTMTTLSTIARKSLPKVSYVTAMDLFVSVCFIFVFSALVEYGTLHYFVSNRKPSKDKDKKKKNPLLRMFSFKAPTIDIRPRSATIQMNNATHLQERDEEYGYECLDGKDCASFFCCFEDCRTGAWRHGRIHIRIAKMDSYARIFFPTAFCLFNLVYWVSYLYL
Briefly: Potentiation of recombinant human alpha1/beta2/gamma2 GABA receptor expressed in T-REX-CHO cells assessed as increase in current amplitude by whole-cell patch clamp assay. It is filed as cell-based.

For series [11], the target named is GABA-A receptor; anion channel (Rattus norvegicus) (UniProt O09028+P15431+P18506+P18508+P19969+P20236+P23574+P23576+P28471+P28473+P30191+P62813+P63079+P63138+Q91ZM7+Q9ES14). Briefly: Potentiation of GABAA receptor in Sprague-Dawley rat hippocampal neurons assessed as increase in current amplitude by whole-cell voltage-clamp assay. The note with it: Hippocampal neuron, filed as activator, dose 0.1-10 µM. The class given is cell-based.

Structures are written as SMILES.

Sequence of Sodium channel protein type 2 subunit alpha (Q99250 whole entry): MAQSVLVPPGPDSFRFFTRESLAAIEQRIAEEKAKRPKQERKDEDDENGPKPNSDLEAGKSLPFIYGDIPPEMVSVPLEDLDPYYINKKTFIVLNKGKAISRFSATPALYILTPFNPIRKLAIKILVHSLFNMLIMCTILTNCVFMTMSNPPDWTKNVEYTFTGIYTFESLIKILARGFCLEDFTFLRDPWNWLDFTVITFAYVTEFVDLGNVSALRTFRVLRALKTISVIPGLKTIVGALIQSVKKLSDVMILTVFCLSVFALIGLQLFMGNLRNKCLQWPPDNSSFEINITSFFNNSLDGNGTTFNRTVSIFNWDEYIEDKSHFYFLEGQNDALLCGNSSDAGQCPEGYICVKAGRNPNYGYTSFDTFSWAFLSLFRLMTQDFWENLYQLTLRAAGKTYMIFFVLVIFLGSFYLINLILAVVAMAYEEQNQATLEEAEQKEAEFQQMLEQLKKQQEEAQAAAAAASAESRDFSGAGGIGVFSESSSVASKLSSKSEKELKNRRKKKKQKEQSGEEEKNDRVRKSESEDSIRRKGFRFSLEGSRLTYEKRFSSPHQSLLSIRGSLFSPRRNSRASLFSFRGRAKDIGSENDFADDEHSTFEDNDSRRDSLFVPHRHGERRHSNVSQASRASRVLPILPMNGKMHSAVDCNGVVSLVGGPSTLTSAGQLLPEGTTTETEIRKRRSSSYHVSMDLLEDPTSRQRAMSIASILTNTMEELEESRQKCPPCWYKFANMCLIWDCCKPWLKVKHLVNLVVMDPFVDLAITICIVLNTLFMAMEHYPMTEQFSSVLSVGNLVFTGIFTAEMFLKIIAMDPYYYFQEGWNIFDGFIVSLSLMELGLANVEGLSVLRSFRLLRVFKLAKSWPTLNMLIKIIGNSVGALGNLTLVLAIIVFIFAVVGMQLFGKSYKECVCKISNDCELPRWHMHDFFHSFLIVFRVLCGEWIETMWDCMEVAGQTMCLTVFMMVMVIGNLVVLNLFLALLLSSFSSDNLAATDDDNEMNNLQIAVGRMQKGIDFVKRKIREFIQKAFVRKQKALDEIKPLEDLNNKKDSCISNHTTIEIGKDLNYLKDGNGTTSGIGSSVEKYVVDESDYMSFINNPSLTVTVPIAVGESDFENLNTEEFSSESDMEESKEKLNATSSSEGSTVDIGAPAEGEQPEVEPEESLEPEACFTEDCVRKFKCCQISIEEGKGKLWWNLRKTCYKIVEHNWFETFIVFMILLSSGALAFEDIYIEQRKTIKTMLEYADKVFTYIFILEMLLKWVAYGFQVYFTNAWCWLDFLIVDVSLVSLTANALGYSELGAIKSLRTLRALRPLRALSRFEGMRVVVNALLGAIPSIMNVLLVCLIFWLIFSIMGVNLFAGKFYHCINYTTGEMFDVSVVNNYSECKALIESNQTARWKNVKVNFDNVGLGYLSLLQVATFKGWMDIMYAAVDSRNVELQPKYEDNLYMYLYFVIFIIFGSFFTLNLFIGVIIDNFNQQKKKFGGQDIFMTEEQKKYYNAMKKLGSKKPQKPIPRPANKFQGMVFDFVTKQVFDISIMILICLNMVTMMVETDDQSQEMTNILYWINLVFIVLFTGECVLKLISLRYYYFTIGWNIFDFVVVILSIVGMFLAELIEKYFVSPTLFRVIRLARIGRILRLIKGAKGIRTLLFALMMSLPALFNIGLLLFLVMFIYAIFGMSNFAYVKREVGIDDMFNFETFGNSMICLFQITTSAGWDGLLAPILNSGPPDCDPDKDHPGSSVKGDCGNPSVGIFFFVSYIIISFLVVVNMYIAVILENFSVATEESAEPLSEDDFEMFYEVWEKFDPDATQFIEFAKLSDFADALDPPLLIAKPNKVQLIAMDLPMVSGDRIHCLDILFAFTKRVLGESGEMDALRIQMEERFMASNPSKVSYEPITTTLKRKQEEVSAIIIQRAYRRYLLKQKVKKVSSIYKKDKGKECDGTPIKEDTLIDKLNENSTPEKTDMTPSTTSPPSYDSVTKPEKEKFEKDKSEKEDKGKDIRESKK

By ED50 is commonly meant the dose that gives a 50% effect, or the effect in half of the subjects. In the case of `CCCC(CCC)C(=O)O` [VALPROIC ACID], in the series on Mus musculus [1], the 50% effective dose (ED50) is 149 mg/kg.

One may read the TD50 as the 50% point of the dose-response relation for the toxic effect studied. A high value points to harm only at a large dose. The IC50 is the concentration that inhibits the measured activity by half. A low value points to greater potency. Consider `O=C1CC(c2ccccc2F)n2nc(-c3ccccc3F)nc2N1` (configuration not stated), for which, in series [2], the Cp is 866.91 ng/mL. In addition, in series [3], the TD50 at 0.5 h was > 267 mg/kg. The median effective dose (ED50) in the series on Mus musculus [1] was 23.7 mg/kg. Moreover, the Activity result in the series on Mus musculus [4] is listed as “Active; Moderate Protection”; in the series with Mus musculus [8] it was 100%. Moreover, the selectivity ratio in [5] was > 11.3. In addition, the IC50 in series [6] was 19.9 µM. Besides, the Ct in series [7] was 458.72 ng/mL. For the same molecule, in series [9], the fold change (FC) stood at 1.14.

What is called EC50 is the concentration that produces a half-maximal response. Turning to `CCCCN1C(=O)CC(c2ccccc2)n2nc(-c3ccc(OC)cc3)nc21` (configuration not stated), the EC50 in [10] amounted to 1.24 µM. Further, the Cp in series [2] was found to be 1202.06 ng/mL. The Activity entry is “Dose-dependent-effect” in [11] and 100% in the series on Mus musculus [8]. Moreover, the TD50 at 0.5 h in [3] is > 267 mg/kg. Also, the ED50 in the series with Mus musculus [1] amounted to 17.1 mg/kg. Moreover, in series [5], the selectivity ratio was > 15.6. In addition, the IC50 in [6] stood at 35 µM. Moreover, the Ct in series [7] stood at 696.98 ng/mL. Moreover, in series [9], the fold change (FC) stood at 2.41.

For the molecule `CCCCN1C(=O)CC(c2ccccc2)n2nc(-c3ccc(C)cc3)nc21` (configuration not stated), the concentration for a half-maximal effect (EC50) in series [10] amounted to 0.82 µM. In series [2], this molecule yielded a Cp of 1186.41 ng/mL. For the same molecule, the Activity entry in [11] was “Dose-dependent-effect”; in the series on Mus musculus [8], 100%. In addition, the TD50 at 0.5 h in series [3] was > 267 mg/kg. Further, the ED50 with Mus musculus [1] amounted to 18.3 mg/kg. Further, the selectivity ratio in [5] was > 14.6. Also, in series [7], the Ct turned out to be 661.3 ng/mL. Besides, the fold change (FC) in series [9] stood at 2.21.

On to `NC(=O)N1c2ccccc2C=Cc2ccccc21` [CARBAMAZEPINE], for which the median effective dose (ED50) in the series with Mus musculus [1] was > 100 mg/kg.

As for `O=C1NC(=O)C(c2ccccc2)(c2ccccc2)N1` [PHENYTOIN], the ED50 with Mus musculus [1] was > 300 mg/kg.

On to `O=C1CC(c2ccccc2Cl)n2nc(-c3ccccc3F)nc2N1` (configuration not stated), for which the Activity entry in the series with Mus musculus [4] is “Active; Moderate Protection”.

The values are drawn from ChEMBL document CHEMBL6103572, “Design, synthesis and structure-activity relationship of novel 1,2,4-triazolopyrimidin-5-one derivatives targeting GABAA1 and Nav1.2 with antiepileptic activity” (Eur J Med Chem, 2025).
